Biological target: human ENPP2 (Homo sapiens (Human), UniProt Q13822)
Experiment: Inhibitory activity on human ENPP2 (FS-3 assay)
Type: biochemical
Details: human ENPP2, FS-3 substrate, 30 min at 37° C.; read-out: IC50
Method: Two-fold dilution of each test compound solution (10 μM, 100% dimethyl sulfoxide) is carried out on 96-well V bottom plate (Costar 3363). After ten-fold dilution of each the test compound solution (100% dimethyl sulfoxide) with deionized distilled water, 10 μL of the diluted each mpound solution (10% dimethyl sulfoxide) was aliquoted to a black flat bottom 96-well plate (Costar 3915).

Compound	IC50
O=C(NCC(=O)N1CCc2[nH]nnc2C1)c1cnc(NCc2cccc(OC(F)(F)F)c2)nc1 [Compound 3, N-(2-oxo-2-{1H,4H,5H,6H,7H-[1,2,3]triazolo[4,5-c]pyridin-5-yl}ethyl)-2-({[3-(trifluoromethoxy)phenyl]methyl}amino)pyrimidine-5-carboxamide]	14.3 nM
CC(NC(=O)c1cnc(NCc2cccc(OC(F)(F)F)c2)nc1)C(=O)N1CCc2[nH]nnc2C1 (stereo not shown) [Compound 4, N-(1-oxo-1-{1H,4H,5H,6H,7H-[1,2,3]triazolo[4,5-c]pyridin-5-yl}propan-2-yl)-2-({[3-(trifluoromethoxy)phenyl]methyl}amino)pyrimidine-5-carboxamide]	18.9 nM
O=C(CN1CCN(c2cnc(NCc3cccc(OC(F)(F)F)c3)nc2)CC1)N1CCc2[nH]nnc2C1 [Compound 21, 1-{1H,4H,5H,6H,7H-[1,2,3]triazolo[4,5-c]pyridin-5-yl}-2-{4-[2-({[3-(trifluoromethoxy)phenyl]methyl}amino)pyrimidin-5-yl]piperazin-1-yl}ethan-1-one]	4.1 nM
O=C1O[C@@H](CN2CCN(c3cnc(NC4Cc5ccccc5C4)nc3)CC2)CN1c1ccc2[nH]c(=O)oc2c1 [Compound 26, 6-[(5S)-5-[(4-{2-[(2,3-dihydro-1H-inden-2-yl)amino]pyrimidin-5-yl}piperazin-1-yl)methyl]-2-oxo-1,3-oxazolidin-3-yl]-2,3-dihydro-1,3-benzoxazol-2-one]	13.1 nM
O=C(CN1CCN(c2cnc(NC3Cc4ccccc4C3)nc2)CC1)c1ccc2[nH]c(=O)oc2c1 [Compound 28, 6-[2-(4-{2-[(2,3-dihydro-1H-inden-2-yl)amino]pyrimidin-5-yl}piperazin-1-yl)acetyl]-2,3-dihydro-1,3-benzoxazol-2-one]	3.1 nM
O=c1[nH]c2ccc(/C(CN3CCN(c4cnc(NC5Cc6ccccc6C5)nc4)CC3)=N\O)cc2o1 [Compound 29, 6-[(1E)-2-(4-{2-[(2,3-dihydro-1H-inden-2-yl)amino]pyrimidin-5-yl}piperazin-1-yl)-1-(hydroxyimino)ethyl]-2,3-dihydro-1,3-benzoxazol-2-one]	3.9 nM

More lines, now with the values ahead:

IC50	Compound
3.3 nM	O=C(NCCC(=O)N1CCc2[nH]nnc2C1)c1cnc(NC2Cc3ccccc3C2)nc1 [Compound 1, 2-[(2,3-dihydro-1H-inden-2-yl)amino]-N-(3-oxo-3-{1H,4H,5H,6H,7H-[1,2,3]triazolo[4,5-c]pyridin-5-yl}propyl)pyrimidine-5-carboxamide]
3.5 nM	O=C(c1cnc(NCc2cccc(OC(F)(F)F)c2)nc1)N1CCC2(CC1)CC(CN1CCc3[nH]nnc3C1)=NO2 [Compound 8, 5-(3-{1H,4H,5H,6H,7H-[1,2,3]triazolo[4,5-c]pyridin-5-ylmethyl}-1-oxa-2,8-diazaspiro[4,5]dec-2-ene-8-carbonyl)-N-{[3-(trifluoromethoxy)phenyl]methyl}pyrimidin-2-amine]
2.2 nM	O=C(CCc1ccc2[nH]c(=O)oc2c1)N1CCC(c2cnc(NC3Cc4ccccc4C3)nc2)CC1 [Compound 16, 6-[3-(4-{2-[(2,3-dihydro-1H-inden-2-yl)amino]pyrimidin-5-yl}piperidin-1-yl)-3-oxopropyl]-2,3-dihydro-1,3-benzoxazol-2-one]
3.4 nM	O=C(CN1CCc2[nH]nnc2C1)N1CCN(c2cnc(NC3Cc4ccccc4C3)nc2)CC1 [Compound 17, 1-(4-{2-[(2,3-dihydro-1H-inden-2-yl)amino]pyrimidin-5-yl}piperazin-1-yl)-2-{1H,4H,5H,6H,7H-[1,2,3]triazolo[4,5-c]pyridin-5-yl}ethan-1-one]
3.6 nM	O=C(CN1CCc2[nH]nnc2C1)N1CCN(c2cnc(NCc3cccc(OC(F)(F)F)c3)nc2)CC1 [Compound 18]
6.8 nM	O=C(CCN1CCN(c2cnc(NC3Cc4ccccc4C3)nc2)CC1)N1CCc2[nH]nnc2C1 [Compound 23]
11.8 nM	O=c1[nH]c2ccc(C3=NOC(CN4CCN(c5cnc(NC6Cc7ccccc7C6)nc5)CC4)C3)cc2o1 (stereo not shown) [Compound 31, 6-{5-[(4-{2-[(2,3-dihydro-1H-inden-2-yl)amino]pyrimidin-5-yl}piperazin-1-yl)methyl]-4,5-dihydro-1,2-oxazol-3-yl}-2,3-dihydro-1,3-benzoxazol-2-one]
